# In patent publication US20090238808A1, “Process for the identification of novel enzyme interacting compounds” (priority 2005, published 2009):
# Columns and labels:
# [1] = molecular target: CSK (Homo sapiens, UniProt P41240); details: purified kinase; published data; cited from earlier work
# [2] = molecular target: T1, DDR2 (Homo sapiens, UniProt Q16832); test: Biochemical kinase activity assay (Upstate IC50Profiler Express); details: Upstate IC50Profiler Express service
# T1 construct: purchased Upstate (IC50Profiler Express service)
# [3] = molecular target: T2, MER (Homo sapiens, UniProt Q12866); test: Biochemical kinase activity assay (Invitrogen SelectScreen)
# T2 sequence (Q12866 21-999): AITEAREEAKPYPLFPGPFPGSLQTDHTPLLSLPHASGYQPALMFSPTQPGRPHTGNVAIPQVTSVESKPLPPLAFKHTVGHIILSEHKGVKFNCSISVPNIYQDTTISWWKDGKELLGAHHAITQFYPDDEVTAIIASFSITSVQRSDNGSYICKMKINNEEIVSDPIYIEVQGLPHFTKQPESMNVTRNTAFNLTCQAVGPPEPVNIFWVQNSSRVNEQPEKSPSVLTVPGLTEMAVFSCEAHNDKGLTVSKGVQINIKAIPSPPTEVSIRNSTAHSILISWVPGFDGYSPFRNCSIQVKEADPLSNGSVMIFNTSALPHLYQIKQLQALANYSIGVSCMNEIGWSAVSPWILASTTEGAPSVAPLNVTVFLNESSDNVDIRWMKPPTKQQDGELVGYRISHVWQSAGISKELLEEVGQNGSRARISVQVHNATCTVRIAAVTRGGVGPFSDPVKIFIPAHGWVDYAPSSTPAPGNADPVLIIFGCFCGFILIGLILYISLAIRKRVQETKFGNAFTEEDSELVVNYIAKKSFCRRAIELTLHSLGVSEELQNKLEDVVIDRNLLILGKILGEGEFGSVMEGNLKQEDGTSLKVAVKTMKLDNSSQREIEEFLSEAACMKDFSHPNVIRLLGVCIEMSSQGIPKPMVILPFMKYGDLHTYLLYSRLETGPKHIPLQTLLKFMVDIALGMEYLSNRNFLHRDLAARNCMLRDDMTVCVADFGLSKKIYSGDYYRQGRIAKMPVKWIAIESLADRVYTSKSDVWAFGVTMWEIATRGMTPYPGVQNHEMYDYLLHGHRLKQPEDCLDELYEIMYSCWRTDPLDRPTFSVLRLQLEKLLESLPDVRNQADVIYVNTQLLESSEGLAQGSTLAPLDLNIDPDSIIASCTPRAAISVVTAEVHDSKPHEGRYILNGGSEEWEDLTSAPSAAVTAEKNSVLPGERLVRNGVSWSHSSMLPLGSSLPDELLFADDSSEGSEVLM
# [4] = molecular target: FER (Homo sapiens, UniProt P16591); test: as above; details: read-out: % inhibition, FER
# [5] = molecular target: GCK (Homo sapiens, UniProt Q12851); test: as above; details: read-out: % inhibition, GCK
# Sequence of GCK (Q12851 whole entry): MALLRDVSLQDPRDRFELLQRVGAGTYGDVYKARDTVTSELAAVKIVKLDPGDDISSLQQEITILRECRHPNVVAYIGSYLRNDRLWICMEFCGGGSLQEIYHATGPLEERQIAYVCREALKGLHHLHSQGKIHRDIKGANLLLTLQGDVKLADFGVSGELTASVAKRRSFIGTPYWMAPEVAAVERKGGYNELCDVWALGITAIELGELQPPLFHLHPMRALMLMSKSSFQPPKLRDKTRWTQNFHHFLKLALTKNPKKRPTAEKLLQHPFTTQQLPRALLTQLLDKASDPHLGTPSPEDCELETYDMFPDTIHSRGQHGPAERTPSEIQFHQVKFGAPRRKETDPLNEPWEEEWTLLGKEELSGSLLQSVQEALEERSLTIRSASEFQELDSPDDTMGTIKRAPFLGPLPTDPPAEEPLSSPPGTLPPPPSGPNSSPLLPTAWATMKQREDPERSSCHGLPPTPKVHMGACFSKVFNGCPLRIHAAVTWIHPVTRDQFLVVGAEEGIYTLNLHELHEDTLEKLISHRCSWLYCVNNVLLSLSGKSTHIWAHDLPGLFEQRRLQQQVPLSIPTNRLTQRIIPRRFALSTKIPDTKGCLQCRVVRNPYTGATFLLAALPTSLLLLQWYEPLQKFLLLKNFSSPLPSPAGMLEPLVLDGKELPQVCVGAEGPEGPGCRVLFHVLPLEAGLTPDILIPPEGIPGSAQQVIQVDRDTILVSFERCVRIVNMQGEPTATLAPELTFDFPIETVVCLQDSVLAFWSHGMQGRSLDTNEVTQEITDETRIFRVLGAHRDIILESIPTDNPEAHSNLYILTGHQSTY
# Sequence of FER (P16591 whole entry): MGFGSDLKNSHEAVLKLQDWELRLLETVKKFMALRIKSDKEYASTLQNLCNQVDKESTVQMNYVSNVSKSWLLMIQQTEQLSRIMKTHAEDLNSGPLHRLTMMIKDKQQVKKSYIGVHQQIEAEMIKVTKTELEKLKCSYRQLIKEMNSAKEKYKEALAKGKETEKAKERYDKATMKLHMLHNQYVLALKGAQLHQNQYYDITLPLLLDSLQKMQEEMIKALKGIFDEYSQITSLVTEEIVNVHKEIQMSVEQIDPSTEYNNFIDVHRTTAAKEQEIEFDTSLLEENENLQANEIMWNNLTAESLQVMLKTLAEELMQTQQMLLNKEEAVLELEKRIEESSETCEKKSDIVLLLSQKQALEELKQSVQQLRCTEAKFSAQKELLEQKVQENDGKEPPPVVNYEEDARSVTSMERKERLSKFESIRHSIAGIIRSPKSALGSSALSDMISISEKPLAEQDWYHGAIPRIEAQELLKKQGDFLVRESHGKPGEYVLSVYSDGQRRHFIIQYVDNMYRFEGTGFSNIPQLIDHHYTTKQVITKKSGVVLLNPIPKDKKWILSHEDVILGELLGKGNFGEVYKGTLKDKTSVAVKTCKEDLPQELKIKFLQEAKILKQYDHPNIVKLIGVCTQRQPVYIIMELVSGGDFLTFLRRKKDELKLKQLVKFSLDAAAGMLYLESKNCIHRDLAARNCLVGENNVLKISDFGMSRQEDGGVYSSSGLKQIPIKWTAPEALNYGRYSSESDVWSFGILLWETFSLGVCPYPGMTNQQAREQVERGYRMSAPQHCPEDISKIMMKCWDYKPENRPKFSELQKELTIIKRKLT
# T1 sequence (Q16832 22-855): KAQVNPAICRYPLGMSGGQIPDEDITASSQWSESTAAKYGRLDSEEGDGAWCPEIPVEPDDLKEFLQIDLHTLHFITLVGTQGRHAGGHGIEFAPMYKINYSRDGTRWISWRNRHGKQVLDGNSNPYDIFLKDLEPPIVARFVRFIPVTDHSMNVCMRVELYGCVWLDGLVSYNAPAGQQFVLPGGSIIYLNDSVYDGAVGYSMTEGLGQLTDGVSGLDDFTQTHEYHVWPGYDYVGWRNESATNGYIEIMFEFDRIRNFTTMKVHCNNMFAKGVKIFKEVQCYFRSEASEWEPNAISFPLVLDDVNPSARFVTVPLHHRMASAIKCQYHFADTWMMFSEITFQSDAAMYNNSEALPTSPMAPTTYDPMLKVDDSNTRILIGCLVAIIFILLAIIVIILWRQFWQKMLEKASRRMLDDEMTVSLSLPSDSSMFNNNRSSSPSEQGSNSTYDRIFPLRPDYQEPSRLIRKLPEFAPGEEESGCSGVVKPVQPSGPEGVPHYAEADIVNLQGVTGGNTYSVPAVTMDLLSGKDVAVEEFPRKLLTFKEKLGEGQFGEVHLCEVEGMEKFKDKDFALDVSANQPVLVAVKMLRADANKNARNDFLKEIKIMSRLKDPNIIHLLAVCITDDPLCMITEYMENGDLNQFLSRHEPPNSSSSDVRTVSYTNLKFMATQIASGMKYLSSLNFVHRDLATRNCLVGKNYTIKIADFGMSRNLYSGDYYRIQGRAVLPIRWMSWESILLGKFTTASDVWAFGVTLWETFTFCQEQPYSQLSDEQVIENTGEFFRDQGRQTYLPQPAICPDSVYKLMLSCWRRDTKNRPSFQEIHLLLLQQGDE
# Sequence of CSK (P41240 whole entry, species assumed): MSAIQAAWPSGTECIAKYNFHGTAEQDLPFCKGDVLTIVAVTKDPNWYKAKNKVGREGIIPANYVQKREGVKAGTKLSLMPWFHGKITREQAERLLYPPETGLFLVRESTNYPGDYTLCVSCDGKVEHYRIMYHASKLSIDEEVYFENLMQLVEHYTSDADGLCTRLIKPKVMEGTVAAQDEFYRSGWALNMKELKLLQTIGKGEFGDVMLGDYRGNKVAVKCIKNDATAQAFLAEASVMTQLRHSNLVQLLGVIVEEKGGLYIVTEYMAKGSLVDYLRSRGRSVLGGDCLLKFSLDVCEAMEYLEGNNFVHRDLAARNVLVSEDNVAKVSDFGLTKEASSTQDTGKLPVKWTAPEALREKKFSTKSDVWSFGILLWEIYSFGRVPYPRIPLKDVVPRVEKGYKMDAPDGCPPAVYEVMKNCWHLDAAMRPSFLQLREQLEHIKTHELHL
SMILES,IC50 [1] [nM],IC50 [2] [nM],IC50 [3] [nM],inhibition at 5 µM [4] [%],inhibition at 5 µM [5] [%],"inhibition at 5 µM ([3]; read-out: % inhibition, MER) [%]"
COc1cc(Nc2c(C#N)cnc3cc(OCCCN4CCN(C)CC4)c(OC)cc23)c(Cl)cc1Cl [bosutinib],310,4900,15.7,,,
Cc1nc(Nc2ncc(C(=O)Nc3c(C)cccc3Cl)s2)cc(N2CCN(CCO)CC2)n1 [dasatinib],,,,36,60,40
